Experiment [1] has as its target T1, α2C adrenoceptor (Homo sapiens, UniProt P18825).
T1 sequence (P18825 1-462): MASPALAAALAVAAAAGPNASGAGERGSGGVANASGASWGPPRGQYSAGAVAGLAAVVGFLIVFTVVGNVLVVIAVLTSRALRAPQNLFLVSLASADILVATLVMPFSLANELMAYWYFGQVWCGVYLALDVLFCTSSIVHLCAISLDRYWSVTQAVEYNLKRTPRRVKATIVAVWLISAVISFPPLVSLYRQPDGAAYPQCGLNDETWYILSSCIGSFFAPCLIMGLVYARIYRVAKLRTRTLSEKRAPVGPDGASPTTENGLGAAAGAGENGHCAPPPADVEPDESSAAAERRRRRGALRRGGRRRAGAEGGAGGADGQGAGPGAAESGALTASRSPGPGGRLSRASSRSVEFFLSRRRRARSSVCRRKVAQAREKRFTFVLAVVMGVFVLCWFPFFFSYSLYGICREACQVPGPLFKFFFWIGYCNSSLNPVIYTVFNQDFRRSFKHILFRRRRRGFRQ
As to the kind of experiment: G protein activation BRET assay in transfected HEK-293T cells. It is filed as cell-based.

Experiment [2] deals with T2, α2A adrenoceptor (Homo sapiens, UniProt P08913).
T2 sequence (P08913 1-465): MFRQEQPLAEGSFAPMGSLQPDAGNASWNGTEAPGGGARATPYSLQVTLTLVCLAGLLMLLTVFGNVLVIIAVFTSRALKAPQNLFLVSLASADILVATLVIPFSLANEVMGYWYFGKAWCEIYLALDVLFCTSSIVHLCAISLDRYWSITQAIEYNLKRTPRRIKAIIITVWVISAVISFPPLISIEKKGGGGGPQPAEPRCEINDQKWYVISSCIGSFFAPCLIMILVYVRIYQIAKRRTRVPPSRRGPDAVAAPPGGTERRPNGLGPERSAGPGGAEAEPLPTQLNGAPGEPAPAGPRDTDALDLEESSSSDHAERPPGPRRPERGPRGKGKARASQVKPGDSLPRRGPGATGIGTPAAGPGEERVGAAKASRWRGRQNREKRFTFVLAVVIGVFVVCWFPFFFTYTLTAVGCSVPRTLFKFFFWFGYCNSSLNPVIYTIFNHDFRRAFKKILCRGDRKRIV
As to the kind of experiment: DMR label-free assay in CHO cells transfected with α2A-RLuc8 receptor. It is filed as cell-based. To be noted: for DMR response: at 300 nM, Fig. 6 legend: 100 nM.

Experiment [3] addresses T2, α2A adrenoceptor. As to the kind of experiment: G protein activation BRET assay in transfected HEK-293T cells. It is filed as cell-based. To be noted: for EC50: read-out: Potency (EC50) G protein activation.
Experiment [4] deals with α2 adrenoceptors (cortex, mostly α2A) (Ovis aries, UniProt A0ACI6PY47). Put plainly: [3H]RX821002 binding. Also noted: species or system sheep.
Experiment [5] concerns the target T2, α2A adrenoceptor. As to the kind of experiment: ERK1/2 phosphorylation in CHO cells transfected with α2A-RLuc8 receptor. It is filed as cell-based. To be noted: 5 minutes; for MAPK activation (ERK1/2 phosphorylation): 1 μM.
The target of experiment [6] is α2 adrenoceptors (striatum, α2A and α2C). Put plainly: [3H]RX821002 binding. Also noted: species or system sheep.
For the next experiment, the target named is D2-like receptor D2L. To be noted: read-out: EC50 values, G protein activation, across Gi/o protein subtypes; cited from earlier work.
For experiment [7], the target named is T1, α2C adrenoceptor.
Experiment [8] has as its target T2, α2A adrenoceptor.
Experiment [9] addresses T1, α2C adrenoceptor. As to the kind of experiment: cell-based.
Another experiment concerns the target D2-like receptors (Ovis aries, UniProt A0ACI6R699). As to the kind of experiment: [3H]YM-09151-2 competition binding, sheep brain striatum. To be noted: sheep striatal membranes; any concentration up to 10 μM.
The target of a further experiment is human D3 receptor (Homo sapiens, UniProt P35462). The experiment is classed as binding. To be noted: HEK-293T membranes, up to 10 μM; data not shown.
A further experiment has as its target T3, human D4 receptor (Homo sapiens, UniProt P21917).
T3 sequence (P21917 1-419): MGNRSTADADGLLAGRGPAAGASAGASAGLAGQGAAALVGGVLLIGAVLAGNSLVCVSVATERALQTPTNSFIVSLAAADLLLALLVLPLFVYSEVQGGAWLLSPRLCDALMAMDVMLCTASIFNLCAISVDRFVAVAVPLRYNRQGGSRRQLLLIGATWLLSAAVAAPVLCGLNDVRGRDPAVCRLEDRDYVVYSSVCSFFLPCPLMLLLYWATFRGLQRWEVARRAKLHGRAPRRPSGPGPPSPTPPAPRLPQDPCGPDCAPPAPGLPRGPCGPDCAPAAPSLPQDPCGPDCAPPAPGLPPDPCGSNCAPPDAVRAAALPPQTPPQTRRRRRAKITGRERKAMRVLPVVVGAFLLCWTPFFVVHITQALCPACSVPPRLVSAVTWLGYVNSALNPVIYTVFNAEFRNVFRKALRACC
The experiment is classed as binding. To be noted: HEK-293T membranes, up to 10 μM; data not shown.

In another experiment the target is human D2 receptor (Homo sapiens, UniProt P14416). It is filed as binding. To be noted: HEK-293T membranes, up to 10 μM; data not shown.
The mark [10] stands for this setting: read-out: KDB1, cortex, vs [3H]RX821002, two-state dimer model, first protomer.
Setting [11] is: read-out: KDB2, cortex, vs [3H]RX821002, two-state dimer model, second protomer.
Setting [12] is: read-out: KDB1, striatum, vs [3H]RX821002, two-state dimer model, first protomer.
Setting [13] is: read-out: KDB2, striatum, vs [3H]RX821002, two-state dimer model, second protomer.

Values joined by “and” are separate entries in the source; they are usually repeats but may differ in a detail not shown here. Equal entries are not always repeated. Structures can show the parent of a compound that is named as a salt. Where two headings read alike, the source gives them in different places.

Sequence of human D2 receptor (P14416 whole entry): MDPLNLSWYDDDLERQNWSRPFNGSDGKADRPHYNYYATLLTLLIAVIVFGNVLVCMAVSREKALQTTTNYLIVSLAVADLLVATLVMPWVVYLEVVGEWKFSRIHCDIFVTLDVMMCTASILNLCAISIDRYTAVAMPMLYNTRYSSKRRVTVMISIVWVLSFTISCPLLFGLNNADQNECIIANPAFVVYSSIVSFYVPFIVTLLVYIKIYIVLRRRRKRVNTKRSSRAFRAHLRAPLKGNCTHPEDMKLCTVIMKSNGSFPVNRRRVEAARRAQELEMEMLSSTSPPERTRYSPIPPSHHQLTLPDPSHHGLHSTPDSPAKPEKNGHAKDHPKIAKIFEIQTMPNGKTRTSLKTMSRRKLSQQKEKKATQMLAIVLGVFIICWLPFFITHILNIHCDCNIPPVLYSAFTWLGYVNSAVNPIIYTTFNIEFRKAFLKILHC
Sequence of human D3 receptor (P35462 whole entry): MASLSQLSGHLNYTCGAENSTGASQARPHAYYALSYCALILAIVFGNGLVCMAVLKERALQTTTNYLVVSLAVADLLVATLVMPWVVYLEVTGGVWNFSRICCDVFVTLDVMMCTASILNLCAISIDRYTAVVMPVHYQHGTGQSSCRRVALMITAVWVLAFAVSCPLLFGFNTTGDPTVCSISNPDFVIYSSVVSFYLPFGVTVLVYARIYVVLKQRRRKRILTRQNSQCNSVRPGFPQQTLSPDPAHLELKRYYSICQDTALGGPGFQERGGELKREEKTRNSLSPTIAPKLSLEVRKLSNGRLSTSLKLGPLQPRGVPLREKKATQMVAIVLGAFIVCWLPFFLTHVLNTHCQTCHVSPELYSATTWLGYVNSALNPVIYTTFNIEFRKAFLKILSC

As for `CCCN(C/C=C/I)C1CCc2ccc(O)cc2C1` (stereo not shown) [7-OH-PIPAT, 7-OH-PIPAT maleate], the “Efficacy (Emax) G protein activation” value is given as 41 ± 1 percentage of NE values at α2C adrenoceptor [1] (Gαi1, α2C, ND: not detectable); 90 ± 20 percentage of NE values at α2C adrenoceptor [1] (Gαi2, α2C); 90 ± 10 percentage of NE values at α2C adrenoceptor [1] (Gαi3, α2C); 98 ± 7 percentage of NE values at α2C adrenoceptor [1] (Gαo1, α2C); 106 ± 3 percentage of NE values on α2C adrenoceptor [1] (Gαo2, α2C); 94 ± 6 percentage of NE values on α2A adrenoceptor [3] (Gαi1, α2A). Besides, the “Efficacy (Emax) G protein activation” value at α2A adrenoceptor [3] (Gαi2, α2A) is reported as 55 ± 2 percentage of NE values; on α2A adrenoceptor [3] (Gαi3, α2A), 71 ± 6 percentage of NE values; at α2A adrenoceptor [3] (Gαo1, α2A) it was 81 ± 9 percentage of NE values; at α2A adrenoceptor [3] (Gαo2, α2A) it was 85 ± 4 percentage of NE values. Further, the EC50 at α2C adrenoceptor [1] (read-out: Potency (EC50) G protein activation, Gαi3, α2C) is 5 ± 3 nM; at α2A adrenoceptor [3] (Gαo1, α2A), 100 ± 20 nM; at α2A adrenoceptor [3] (Gαo2, α2A) it was 66 ± 7 nM. The DMR response result on α2A adrenoceptor [2] was “significant response”. The “DCB (cooperativity index)” value in experiment [4] (cortex, vs [3H]RX821002) was “DCB: -1.1”. For the same molecule, the Kd in experiment [4] (setting [10]) was 9 nM; in experiment [4] (setting [11]), 430 nM; in [6] (setting [12]), 51 nM. Further, on α2A adrenoceptor [5], the “MAPK activation (ERK1/2 phosphorylation)” value is “able to produce MAPK activation”.

Turning to `CC1c2ccccc2CN1CC1=NCCN1` (stereo not shown) [BRL 44408], at α2A adrenoceptor [2] (BRL 44408 1 μM, 30 minutes pretreatment), the “effect on DA and NE activation of DMR” value was “decreased”.

As to `Clc1cccc(Cl)c1N=C1NCCN1` [Clonidine, clonidine hydrochloride], at α2A adrenoceptor [3], the “Efficacy (Emax) G protein activation” value is 110 ± 10 percentage of NE values and 120 ± 2 percentage of NE values and 120 ± 5 percentage of NE values and 89 ± 6 percentage of NE values and 112 ± 8 percentage of NE values. Also, the Kd was found to be 0.036 nM in experiment [6] (setting [12]) and 20 nM in experiment [6] (setting [13]).

On to `NCCc1ccc(O)c(O)c1` [DA, Dopamine hydrochloride], for which the EC50 on D2-like receptor D2L is 130 to 400 nM. Moreover, the Kd was 6 nM in experiment [6] (setting [12]) and 1000 nM in experiment [6] (setting [13]).

As to `NC[C@H](O)c1ccc(O)c(O)c1` [NE, L-(-)-norepinephrine (+)-bitartrate salt monohydrate], the “Efficacy (Emax) G protein activation” value at α2C adrenoceptor [1] (Gαi1, α2C, ND: not detectable) is on record as 100 ± 2 percentage of NE values; at α2C adrenoceptor [1] (Gαi2, α2C), 100 ± 7 percentage of NE values; on α2C adrenoceptor [1] (Gαi3, α2C), 100 ± 9 percentage of NE values; on α2C adrenoceptor [1] (Gαo1, α2C), 100 ± 10 percentage of NE values; at α2C adrenoceptor [1] (Gαo2, α2C), 100 ± 8 percentage of NE values; on α2A adrenoceptor [3] (Gαi1, α2A), 100 ± 5 percentage of NE values. Moreover, the “Efficacy (Emax) G protein activation” value at α2A adrenoceptor [3] (Gαi2, α2A) is 100 ± 10 percentage of NE values; on α2A adrenoceptor [3] (Gαi3, α2A), 100 ± 10 percentage of NE values; on α2A adrenoceptor [3] (Gαo1, α2A), 100 ± 7 percentage of NE values; at α2A adrenoceptor [3] (Gαo2, α2A) it was 100 ± 9 percentage of NE values. The EC50 at α2C adrenoceptor [1] (Potency (EC50) G protein activation, Gαi3, α2C) amounted to 0.4 ± 0.2 nM; at α2C adrenoceptor [9], 7 ± 4 nM. In addition, the “Gs activation (inverted U-shaped curve, high ligand concentrations)” value on α2C adrenoceptor [7] (at 10 and 100 μM) is “promoted Gs activation”; on α2A adrenoceptor [8] (at 10 and 100 μM), “promoted Gs activation”. Moreover, the “increase of ERK1/2 phosphorylation levels” value on α2A adrenoceptor [5] (300 nM) worked out at 3 fold over basal.

`Cc1ncc(CN2CC=C(c3ccccc3)CC2)c(N)n1.Cl.Cl` [RO-105824, RO-105824 dihydrochloride]: the “inhibition of the agonistic effect of clonidine (1 μM)” value is given as “did counteract” on α2C adrenoceptor [1] (α2C, Gαo1) and “did counteract” on α2A adrenoceptor [3] (α2A, Gαo1). Besides, the “G protein activation (agonist effect)” value is “did not produce a significant activation” at α2C adrenoceptor [1] (α2C, any of the Gαi/o subtypes); “small efficacy” at α2A adrenoceptor [3] (α2A, Gαi2 and Gαi3); “did not produce a significant activation” on α2A adrenoceptor [3] (α2A, Gαi/o subtypes other than Gαi2 and Gαi3). The DMR response result on α2A adrenoceptor [2] was “substantially lower”. In addition, the results for the Kd in [4] (setting [10]), in experiment [4] (setting [11]) and in experiment [6] (setting [12]) were 0.055 nM, 4000 nM and 0.42 nM, respectively. For the same molecule, the “MAPK activation (ERK1/2 phosphorylation)” value on α2A adrenoceptor [5] is “able to produce MAPK activation”.

Regarding `COC1(C2=NCCN2)COc2ccccc2O1` (stereo not shown) [RX821002], the “displacement of [3H]YM-09151-2 binding” value is “did not displace” on D2-like receptors, “identical results” at human D3 receptor, “identical results” on human D4 receptor and “identical results” on human D2 receptor.

With `COC1(C2=NCCN2)COc2ccccc2O1` (stereo not shown) [[^3H]RX821002], the Kd in experiment [4] (read-out: affinity value (KDA1) of the radioligand, saturation experiments, cortical tissue, n=4-8) was determined as 0.06 ± 0.01 nM; in experiment [6] (read-out: affinity value (KDA1) of the radioligand, saturation experiments, striatal tissue, n=4-8), 0.07 ± 0.01 nM.

For `COC(=O)[C@@H]1[C@H]2C[C@H]3c4[nH]c5ccccc5c4CCN3C[C@@H]2CC[C@@H]1O` [yohimbine, yohimbine hydrochloride], the “blockade of Gαo1 activation induced by 10 μM 7-OH-PIPAT or 10 μM quinpirole” value at α2C adrenoceptor [1] and on α2A adrenoceptor [3] was “completely blocked” each time. Also, the “blockade of Gi/o-dependent effects of NE and DA on adenylyl cyclase” value on α2C adrenoceptor [7] (yohimbine 10 μM) and at α2A adrenoceptor [8] (yohimbine 10 μM) was “blocked” each time.

The values are drawn from PMC6143434 (Molecular neurobiology, 2018).
